Measured values: PubChem BioAssay AID651573 (The Scripps Research Institute Molecular Screening Center, 2012)
Calls of active or inactive are those of the source.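 How the source made its calls: active means percent growth at or below 50%, meaning growth inhibited by at least half; inactive means percent growth above 50%.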

Assays:
Assay in all cases: growth inhibition across NCI60 tumor lines, profiling panel, STAT3 inhibitor project, cell-based, NCI60 one-dose, 10 µM (AID 651573)
[1] = tested on: Non-Small Cell Lung Cancer EKVX; conditions: SRB absorbance, 48 h, at 10 µM, active compounds read low
[2] = tested on: Renal Cancer TK-10; conditions: SRB absorbance, 48 h, at 10 µM, active compounds read low
[3] = tested on: Melanoma SK-MEL-5; conditions: NCI60 cancer cell panel growth, SRB absorbance, 48 h, at 10 µM, active compounds read low
[4] = tested on: Breast Cancer MCF7; conditions: SRB absorbance, 48 h, at 10 µM, active compounds read low
[5] = tested on: CNS Cancer U251; conditions: SRB absorbance, 48 h, at 10 µM, active compounds read low
[6] = tested on: Breast Cancer BT-549; conditions: SRB absorbance, 48 h, at 10 µM, active compounds read low, 0 = no net growth, negative = cell kill
[7] = tested on: CNS Cancer SF-268; conditions: SRB absorbance, 48 h, at 10 µM, active compounds read low
[8] = tested on: Melanoma MDA-MB-435; conditions: NCI60 cancer cell panel growth, SRB absorbance, 48 h, at 10 µM, active compounds read low
[9] = tested on: Renal Cancer A498; conditions: SRB absorbance, 48 h, at 10 µM, active compounds read low
[10] = tested on: Leukemia K-562; conditions: NCI60 cancer cell panel growth, SRB absorbance, 48 h, at 10 µM, active compounds read low
[11] = tested on: Renal Cancer 786-0; conditions: SRB absorbance, 48 h, at 10 µM, active compounds read low
[12] = tested on: Colon Cancer HCT-116; conditions: SRB absorbance, 48 h, at 10 µM, active compounds read low
[13] = tested on: Renal Cancer RXF 393; conditions: SRB absorbance, 48 h, at 10 µM, active compounds read low
[14] = tested on: Leukemia RPMI-8226; conditions: NCI60 cancer cell panel growth, SRB absorbance, 48 h, at 10 µM, active compounds read low
[15] = tested on: Prostate Cancer PC-3; conditions: SRB absorbance, 48 h, at 10 µM, active compounds read low
[16] = tested on: Ovarian Cancer SK-OV-3; conditions: SRB absorbance, 48 h, at 10 µM, active compounds read low
[17] = tested on: Melanoma LOX IMVI; conditions: NCI60 cancer cell panel growth, SRB absorbance, 48 h, at 10 µM, active compounds read low
[18] = tested on: Melanoma M14; conditions: NCI60 cancer cell panel growth, SRB absorbance, 48 h, at 10 µM, active compounds read low
[19] = tested on: Non-Small Cell Lung Cancer NCI-H226; conditions: SRB absorbance, 48 h, at 10 µM, active compounds read low
[20] = tested on: Breast Cancer HS 578T; conditions: SRB absorbance, 48 h, at 10 µM, active compounds read low
[21] = tested on: Non-Small Cell Lung Cancer NCI-H460; conditions: SRB absorbance, 48 h, at 10 µM, active compounds read low
[22] = tested on: Breast Cancer MDA-MB-468; conditions: SRB absorbance, 48 h, at 10 µM, active compounds read low
[23] = tested on: Colon Cancer COLO 205; conditions: SRB absorbance, 48 h, at 10 µM, active compounds read low, 0 = no net growth, negative = cell kill
[24] = tested on: Non-Small Cell Lung Cancer A549/ATCC; conditions: SRB absorbance, 48 h, at 10 µM, active compounds read low
[25] = tested on: CNS Cancer SF-295; conditions: SRB absorbance, 48 h, at 10 µM, active compounds read low
[26] = tested on: Melanoma SK-MEL-28; conditions: NCI60 cancer cell panel growth, SRB absorbance, 48 h, at 10 µM, active compounds read low
[27] = tested on: Non-Small Cell Lung Cancer NCI-H522; conditions: SRB absorbance, 48 h, at 10 µM, active compounds read low
[28] = tested on: Melanoma SK-MEL-2; conditions: NCI60 cancer cell panel growth, SRB absorbance, 48 h, at 10 µM, active compounds read low
[29] = tested on: Colon Cancer KM12; conditions: SRB absorbance, 48 h, at 10 µM, active compounds read low
[30] = tested on: Non-Small Cell Lung Cancer HOP-92; conditions: SRB absorbance, 48 h, at 10 µM, active compounds read low, 0 = no net growth, negative = cell kill
[31] = tested on: Leukemia SR; conditions: NCI60 cancer cell panel growth, SRB absorbance, 48 h, at 10 µM, active compounds read low
[32] = tested on: Colon Cancer HCC-2998; conditions: SRB absorbance, 48 h, at 10 µM, active compounds read low
[33] = tested on: Melanoma UACC-62; conditions: NCI60 cancer cell panel growth, SRB absorbance, 48 h, at 10 µM, active compounds read low, 0 = no net growth, negative = cell kill
[34] = tested on: Ovarian Cancer OVCAR-8; conditions: SRB absorbance, 48 h, at 10 µM, active compounds read low
[35] = tested on: Non-Small Cell Lung Cancer HOP-62; conditions: SRB absorbance, 48 h, at 10 µM, active compounds read low, 0 = no net growth, negative = cell kill
[36] = tested on: Colon Cancer HCT-15; conditions: SRB absorbance, 48 h, at 10 µM, active compounds read low
[37] = tested on: CNS Cancer SNB-75; conditions: SRB absorbance, 48 h, at 10 µM, active compounds read low
[38] = tested on: Breast Cancer MDA-MB-231/ATCC; conditions: SRB absorbance, 48 h, at 10 µM, active compounds read low
[39] = tested on: Melanoma UACC-257; conditions: NCI60 cancer cell panel growth, SRB absorbance, 48 h, at 10 µM, active compounds read low
[40] = tested on: Ovarian Cancer NCI/ADR-RES; conditions: SRB absorbance, 48 h, at 10 µM, active compounds read low
[41] = tested on: Colon Cancer SW-620; conditions: SRB absorbance, 48 h, at 10 µM, active compounds read low, 0 = no net growth, negative = cell kill
[42] = tested on: Ovarian Cancer OVCAR-3; conditions: SRB absorbance, 48 h, at 10 µM, active compounds read low
[43] = tested on: Leukemia MOLT-4; conditions: NCI60 cancer cell panel growth, SRB absorbance, 48 h, at 10 µM, active compounds read low
[44] = tested on: Renal Cancer SN12C; conditions: SRB absorbance, 48 h, at 10 µM, active compounds read low
[45] = tested on: Prostate Cancer DU-145; conditions: SRB absorbance, 48 h, at 10 µM, active compounds read low
[46] = tested on: CNS Cancer SNB-19; conditions: SRB absorbance, 48 h, at 10 µM, active compounds read low
[47] = tested on: Non-Small Cell Lung Cancer NCI-H23; conditions: SRB absorbance, 48 h, at 10 µM, active compounds read low
[48] = tested on: Renal Cancer CAKI-1; conditions: SRB absorbance, 48 h, at 10 µM, active compounds read low
[49] = tested on: Leukemia CCRF-CEM; conditions: NCI60 cancer cell panel growth, SRB absorbance, 48 h, at 10 µM, active compounds read low

SMILES: COc1ccc(C(=O)C2CCN(c3ncnc4sccc34)CC2)cc1
- percent growth [1]: 34.9%
- percent growth [2]: 73.3% (inactive)
- percent growth [3]: 26.5%
- percent growth [4]: 55.4% (inactive)
- percent growth [5]: 77.5% (inactive)
- percent growth [6]: 53.4% (inactive)
- percent growth [7]: 85.4% (inactive)
- percent growth [8]: 66.6% (inactive)
- percent growth [9]: 91.7% (inactive)
- percent growth [10]: 41.4%
- percent growth [11]: 72.4% (inactive)
- percent growth [12]: 34.4%
- percent growth [13]: 102% (inactive)
- percent growth [14]: 27.7%
- percent growth [15]: 76.9% (inactive)
- percent growth [16]: 89.9% (inactive)
- percent growth [17]: 40.1%
- percent growth [18]: 78.5% (inactive)
- percent growth [19]: 88.8% (inactive)
- percent growth [20]: 93.6% (inactive)
- percent growth [21]: 71% (inactive)
- percent growth [22]: 18.9%
- percent growth [23]: 88.2% (inactive)
- percent growth [24]: 74.5% (inactive)
- percent growth [25]: 57.1% (inactive)
- percent growth [26]: 105% (inactive)
- percent growth [27]: 49.2%
- percent growth [28]: 76% (inactive)
- percent growth [29]: 87.9% (inactive)
- percent growth [30]: 61.7% (inactive)
- percent growth [31]: 47.9%
- percent growth [32]: 82.3% (inactive)
- percent growth [33]: 52.7% (inactive)
- percent growth [34]: 64% (inactive)
- percent growth [35]: 91.9% (inactive)
- percent growth [36]: 72.4% (inactive)
- percent growth [37]: 104% (inactive)
- percent growth [38]: 77.8% (inactive)
- percent growth [39]: 63.7% (inactive)
- percent growth [40]: 43.5%
- percent growth [41]: 90.8% (inactive)
- percent growth [42]: 97.1% (inactive)
- percent growth [43]: 57.7% (inactive)
- percent growth [44]: 71.2% (inactive)
- percent growth [45]: 98.8% (inactive)
- percent growth [46]: 64.8% (inactive)
- percent growth [47]: 53.4% (inactive)
- percent growth [48]: 66.4% (inactive)
- percent growth [49]: 42.3%
